Results taken from PubChem BioAssay AID2060901 (Molecular Pharmacology Branch, DTP, NCI, 2025).

System: 422866-222-R5-J1-PDC complex spheroids viability
Assay: Anticancer human tumor 422866-222-R5-J1-PDC patient-derived pancreatic adenocarcinoma cell line growth inhibition [RAS]
Settings: for IC50: curve of first compound; for viability, T/C: stronger effect = lower value
Summary of the method: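 Agents were tested in combination matrices in half-log decrements from a top concentration at or near clinical Cmax (10 microM if undetermined). Targets were multi-cell spheroids of tumour lines plus HUVEC and MSC stromal cells.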

[1] = second compound 0.000949 µM, first compound 0.0316 µM
[2] = second compound 0.000949 µM, first compound 0.1 µM
[3] = second compound 0.000949 µM, first compound 0.316 µM
[4] = second compound 0.000949 µM, first compound 1 µM
[5] = second compound 0.003 µM, first compound 0.0316 µM
[6] = second compound 0.003 µM, first compound 0.1 µM
[7] = second compound 0.003 µM, first compound 0.316 µM
[8] = second compound 0.003 µM, first compound 1 µM
[9] = second compound 0.00949 µM, first compound 0.0316 µM
[10] = second compound 0.00949 µM, first compound 0.1 µM
[11] = second compound 0.00949 µM, first compound 0.316 µM
[12] = second compound 0.00949 µM, first compound 1 µM
[13] = second compound 0.03 µM, first compound 0.0316 µM
[14] = second compound 0.03 µM, first compound 0.1 µM
[15] = second compound 0.03 µM, first compound 0.316 µM
[16] = second compound 0.03 µM, first compound 1 µM
[17] = second compound 0.0949 µM, first compound 0.0316 µM
[18] = second compound 0.0949 µM, first compound 0.1 µM
[19] = second compound 0.0949 µM, first compound 0.316 µM
[20] = second compound 0.0949 µM, first compound 1 µM
[21] = second compound 0.3 µM, first compound 0.0316 µM
[22] = second compound 0.3 µM, first compound 0.1 µM
[23] = second compound 0.3 µM, first compound 0.316 µM
[24] = second compound 0.3 µM, first compound 1 µM
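Further: spheroids exposed to compounds for 7 days.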
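Wherever viability, T/C is given: 100% = DMSO vehicle control viability.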

## CCN1CCN(Cc2ccc(Nc3ncc(F)c(-c4cc(F)c5nc(C)n(C(C)C)c5c4)n3)nc2)CC1 + CCn1c(-c2cc(N3CCN(C)CC3)cnc2C(C)OC)c2c3cc(ccc31)-c1csc(n1)CC(NC(=O)C1CC1C)C(=O)N1CCCC(N1)C(=O)OCC(C)(C)C2
Second compound 0.000949 µM
  IC50: < 3.16 nM
Second compound 0.003 µM
  IC50: < 3.16 nM
Second compound 0.00949 µM
  IC50: < 3.16 nM
Second compound 0.03 µM
  IC50: < 3.16 nM
Second compound 0.0949 µM
  IC50: < 3.16 nM
Second compound 0.3 µM
  IC50: < 3.16 nM
Second compound 0.000949 µM, first compound 0.00316 µM
  viability, T/C: 34.5%
Second compound 0.000949 µM, first compound 0.01 µM
  viability, T/C: 29.8%
[1]
  viability, T/C: 26.8%
[2]
  viability, T/C: 29.4%
[3]
  viability, T/C: 29.5%
[4]
  viability, T/C: 43.6%
Second compound 0.003 µM, first compound 0.00316 µM
  viability, T/C: 25.6%
Second compound 0.003 µM, first compound 0.01 µM
  viability, T/C: 21.5%
[5]
  viability, T/C: 21.9%
[6]
  viability, T/C: 22.6%
[7]
  viability, T/C: 25%
[8]
  viability, T/C: 34.7%
Second compound 0.00949 µM, first compound 0.00316 µM
  viability, T/C: 18.7%
Second compound 0.00949 µM, first compound 0.01 µM
  viability, T/C: 17.4%
[9]
  viability, T/C: 18.3%
[10]
  viability, T/C: 16.3%
[11]
  viability, T/C: 23.1%
[12]
  viability, T/C: 28.6%
Second compound 0.03 µM, first compound 0.00316 µM
  viability, T/C: 18.9%
Second compound 0.03 µM, first compound 0.01 µM
  viability, T/C: 22.9%
[13]
  viability, T/C: 17.6%
[14]
  viability, T/C: 17.3%
[15]
  viability, T/C: 21.8%
[16]
  viability, T/C: 31.1%
Second compound 0.0949 µM, first compound 0.00316 µM
  viability, T/C: 19.7%
Second compound 0.0949 µM, first compound 0.01 µM
  viability, T/C: 18.4%
[17]
  viability, T/C: 18.8%
[18]
  viability, T/C: 17.9%
[19]
  viability, T/C: 24.5%
[20]
  viability, T/C: 31.4%
Second compound 0.3 µM, first compound 0.00316 µM
  viability, T/C: 17.9%
Second compound 0.3 µM, first compound 0.01 µM
  viability, T/C: 19.8%
[21]
  viability, T/C: 20.9%
[22]
  viability, T/C: 19.1%
[23]
  viability, T/C: 25.9%
[24]
  viability, T/C: 33.5%

## C[C@@H](NC(=O)c1ncnc(N)c1Cl)c1ncc(C(=O)Nc2cc(C(F)(F)F)c(Cl)cn2)s1 + CCn1c(-c2cc(N3CCN(C)CC3)cnc2C(C)OC)c2c3cc(ccc31)-c1csc(n1)CC(NC(=O)C1CC1C)C(=O)N1CCCC(N1)C(=O)OCC(C)(C)C2
Second compound 0.000949 µM
  IC50: < 31.6 nM
Second compound 0.003 µM
  IC50: < 31.6 nM
Second compound 0.00949 µM
  IC50: < 31.6 nM
Second compound 0.03 µM
  IC50: < 31.6 nM
Second compound 0.0949 µM
  IC50: < 31.6 nM
Second compound 0.3 µM
  IC50: < 31.6 nM
[1]
  viability, T/C: 33.8%
[2]
  viability, T/C: 40.3%
[3]
  viability, T/C: 33.5%
[4]
  viability, T/C: 36.9%
Second compound 0.000949 µM, first compound 3.16 µM
  viability, T/C: 39.1%
Second compound 0.000949 µM, first compound 10 µM
  viability, T/C: 37.2%
[5]
  viability, T/C: 24.8%
[6]
  viability, T/C: 26.4%
[7]
  viability, T/C: 26.2%
[8]
  viability, T/C: 25.8%
Second compound 0.003 µM, first compound 3.16 µM
  viability, T/C: 26.1%
Second compound 0.003 µM, first compound 10 µM
  viability, T/C: 30.1%
[9]
  viability, T/C: 21%
[10]
  viability, T/C: 20.3%
[11]
  viability, T/C: 21.1%
[12]
  viability, T/C: 22.2%
Second compound 0.00949 µM, first compound 3.16 µM
  viability, T/C: 24.3%
Second compound 0.00949 µM, first compound 10 µM
  viability, T/C: 24.3%
[13]
  viability, T/C: 20.4%
[14]
  viability, T/C: 19.8%
[15]
  viability, T/C: 20.8%
[16]
  viability, T/C: 23.8%
Second compound 0.03 µM, first compound 3.16 µM
  viability, T/C: 24.1%
Second compound 0.03 µM, first compound 10 µM
  viability, T/C: 22.2%
[17]
  viability, T/C: 21.3%
[18]
  viability, T/C: 20.6%
[19]
  viability, T/C: 21.1%
[20]
  viability, T/C: 19.9%
Second compound 0.0949 µM, first compound 3.16 µM
  viability, T/C: 23.1%
Second compound 0.0949 µM, first compound 10 µM
  viability, T/C: 24.3%
[21]
  viability, T/C: 19.5%
[22]
  viability, T/C: 20.2%
[23]
  viability, T/C: 21.4%
[24]
  viability, T/C: 20.9%
Second compound 0.3 µM, first compound 3.16 µM
  viability, T/C: 22.6%
Second compound 0.3 µM, first compound 10 µM
  viability, T/C: 24.8%
